Assay results from paper PMC11513854, “De novo GTP synthesis is a metabolic vulnerability for the interception of brain metastases” (Cell Reports Medicine, 2024).

Key:
MDR1-MDCKII cells = assay: Bi-directional permeability via MDR1-MDCKII cells; format: in vitro ADME
Method: (§1) MDR1-MDCKII permeability assays were performed by Wuxi AppTec Co. Briefly, MDR1-MDCK1 cells were seeded onto polycarbonate membranes in 96-well insert system plates and allowed to develop into monolayers. […] The plate was incubated for 2.5 h (37°C, 5% CO2) and the media was sampled on either side and the compound present was quantified by LC-MS/MS and the concentrations were used to calculate the efflux ratio. Digoxin (10 μM), nadolol (2 μM), and metoprolol (2 μM) were used as controls.

MDR1 = assay: Bi-directional permeability via MDR1-MDCKII cells; format: in vitro ADME; conditions: dog, MDCK-MDR1, pH 7.4; 2 μM (digoxin 10 μM), 2.5 h
Method: as §1

[1] = Brain homogenate binding, equilibrium dialysis; format: in vitro ADME, mouse; conditions: 2 μM, 4 h, 37°C
Method: The samples were applied to a dialysis well plate and sealed with dialysis membrane. Dialysis buffer (100 mM sodium phosphate pH 7.4, 150 mM NaCl) was applied to opposite side of the membrane (receiver well of the plate), and samples were incubated at 37°C with 5% CO2 for 4 h. Following completion of incubation period, samples were recovered from each side of the dialysis membrane and processed by protein precipitation, and analysis by LC-MS/MS for compound concentration. A corresponding set of samples was also prepared and stop solution (acetonitrile containing 200 ng/mL tolbutamide and 200 ng/mL labetalol) was immediately added, and samples were obtained from each side of the dialysis plate for mass spectrometric analysis.

[2] = test system: BT478 and BT530 tumor cells; assay: Dose-response with exogenous guanine supplementation; format: cell-based, human; conditions: guanine 12 μM in culture media
Excerpt: Created with BioRender.com. […] Comparisons were made via a two-tailed unpaired t test, n = 4 technical replicates, p value is indicated. N.s., not significant, ∗∗∗∗ = p < 0.0001. […] Comparisons were made via a two-tailed unpaired t test, n = 4 technical replicates. N.s., not significant. […] Data are presented as mean ± SD from 4 technical replicates. (E) Immunoblot confirmation of IMPDH (IMPDH1 + IMPDH2) knockout (KO) in patient-derived lung-BMICs. Cropped from single full blot. (F) Time-course proliferation assays of AAVS1 and IMPDH KO BT478 and BT530 cells. Comparisons were made via a two-tailed unpaired t test. Data are presented as mean ± SD from 4 technical replicates, ∗∗∗∗ = p < 0.0001. (G) Representative bar graphs depicting the sphere count per 200 cells of AAVS1 vs. IMPDH KO cells. Comparisons were made via a two-tailed unpaired t test, data are presented as mean ± SD from 4 technical replicates, ∗∗∗∗ = p < 0.0001. (H) Kaplan-Meier curves showing the overall survival probability (from primary cancer diagnosis to death) in a cohort of 30 patients with lung carcinoma who developed BM, for IMPDH2 very high vs. very low expression (1st and 3rd quartiles cutoff values: <114.86 and >210.74). The Cox regression model for survival analysis was used, p values (p) are shown. […]

lung-BMICs = assay: Intracranial injection of lung-BMICs, daily oral gavage treatment; format: in vivo, mice; conditions: 100 mg/kg daily oral gavage from 24 h after injection; log rank n.s. [MPA], p = 0.0005 [Compound 3]
Method: The cells were injected intracranially to ensure that any survival benefit would be due to the compounds crossing the BBB and targeting BMICs in the brain.
All experimental procedures involving animal work has been reviewed and approved by McMaster University Animal Research Ethics Board. Non-obese diabetic-severe combined immunodeficient IL2r γ ^null (NSG) mice are used for all experiments. Equal numbers of male and female mice were used for all experiments. Healthy mice were 6–8 weeks at time of use. Mice are anesthetized by gas anesthesia using isoflurane (4% induction, 2.5% maintenance) before procedure. Cells were engineered to express firefly luciferase and were injected intracardially, orthotopically, or intracranially as previously described.[13]^,[14]^,[63]^,[64]^,[65] […] Mice are monitored weekly for signs of illness until endpoint.

lung-BMIC line (BT478) = assay: Dose-response assay, PrestoBlue; format: cell-based, human; conditions: for IC50: Homo sapiens, BT478, 72-h treatment, PrestoBlue, N/A, not applicable, read-out: Lung-BM IC50
Method: For preliminary drug screening, drugs were plated at a concentration of 10 μM in a 96-well plate, in triplicate at a density of 1000 cells/well, and incubated at 37°C with a humidified atmosphere of 5% CO2 for three days. Vehicle controls for cell death are used in each functional experiment. Following treatment, PrestoBlue (20 μL, Invitrogen), a resazurin-based cell viability reagent and fluorescence indicator of cell metabolism, was added to each well to estimate proliferation approximately 2 h prior to measuring fluorescence intensity via FLUOstar Omega Fluorescence 556 Microplate reader (BMG LABTECH) at an excitation and emission wavelength of 540 nm and 590 nm, respectively. Results were analyzed using Omega analysis software.
Dose-response assays were conducted using the same protocol apart from drugs being plated using 2-fold serial dilutions (20 μM - 39 nM) as previously described.[66] The half maximal inhibitory concentration (IC50) is determined by plotting percent cell viability by the logarithmic concentration of drug. IC80 concentrations will be used for subsequent functional assays (cell proliferation, sphere formation), as determined by the following formula: ICF=100−F/F^1/H×IC50 where F = fraction of maximal response and H = hill slope.

Row | Compound | Rank of Papp (MDR1-MDCKII cells) | permeability for entering the brain (MDR1-MDCKII cells; MDCK-MDR1 cell monolayer model) | substrate for P-glycoprotein (ABCB1) (MDR1-MDCKII cells; MDCK-MDR1 cell monolayer model) | Papp A→B at 2.5 h, 2 μM (MDR1) | Papp B→A at 2.5 h, 2 μM (MDR1) | efflux ratio at 2.5 h, 2 μM (MDR1) | % Bound [1] | % Unbound [1] | mass of compound following completion of the brain homogenate assay [1] | BMIC viability with exogenous guanine supplementation [2] | survival advantage (lung-BMICs) | selectivity for BMICs compared to normal brain cells (lung-BMIC line (BT478); BT478, MDA-MB-231 Br, BT673 vs neural stem cells, 72 h) | IC50 (lung-BMIC line (BT478))
1 | COc1c(C)c2c(c(O)c1C/C=C(\C)CCC(=O)OCCN1CCCC1)C(=O)OC2 [Compound 3] | High | high permeability | not significant substrates | 14.8 ×10⁻⁶ cm/s | 12.5 ×10⁻⁶ cm/s | 0.848 | Not Recover ed | Not Recover ed | could not be detected | rescued BMIC viability | significant survival advantage | retained MPA’s therapeutic window | 15.3 µM
2 | COc1c(C)c2c(c(O)c1C/C=C(\C)CCC(=O)O)C(=O)OC2 [MPA, Mycophenolic acid] |  |  | not significant substrates | 26 ×10⁻⁶ cm/s | 10 ×10⁻⁶ cm/s |  |  | 34.1% |  | rescued BMIC viability | no survival advantage |  | 3.61 µM
